Results published in patent US20210301038A1, “POLYSIALIC ACID AND DERIVATIVES THEREOF, PHARMACEUTICAL COMPOSITION AND METHOD OF PRODUCING POLYSIALIC ACID” (Medizinische Hochschule Hannover (MHH), priority 2018, published 2021).
Counter-ions that a name gives are not always drawn.

Columns and labels:
[1] = tested on: layer II/III - layer V synapses in mPFC slices; assay: TBS-induced LTP (fEPSP) in sham- and endoNF-treated mPFC slices from C57BL/6 mice; type: cell-based, mouse; settings: endoNF-treated slices; Ro 25-6981 0.3 μM; DP12 1 μg/ml; DP5 1 or 10 μg/ml; sarcosine 0.75 mM; SSR 504734 3 μM
Description: (§1) For endoNF treatment in C57BL/6J mice, slices were first allowed to recover for 20 min at room temperature (22-24° C.) in recording aCSF and were then placed in a 24-well plate to be incubated in 2 ml of aCSF without (sham) or with addition of endoNF (10 μg/ml) at 35° C. for 2 hours. The 24-well plate was installed in a water bath (ED, Julabo, Seelbach, Germany). For field excitatory postsynaptic potential (fEPSP) recordings in knockout and transgenic mice, mPFC slices were incubated in recording aCSF for >2 hours at room temperature before recordings. For patch-clamp recordings in knockout mice, slices were incubated first at 35° C. for 20 min and then at room temperature for >30 min before recordings started. The aCSF was continuously gassed with 95% O2/5% CO2 during all incubation steps and recordings.
(§2) Prefrontal slices (400 μm) were transferred to a submerged-type recording MC membrane chamber (volume 2 ml; Scientific Systems Design Inc., Mississauga, Ontario, Canada) perfused with oxygenated recording ACSF at a flow rate of 4 ml/min and maintained at room temperature (22-25° C.), unless stated otherwise in the “Results”-section given below. Field EPSPs were evoked and recorded using thin-walled glass electrodes (borosilicate glass, wall thickness 0.188, length 100, and outer diameter 1.5 mm, Hilgenberg, Malsfeld, Germany) filled with recording aCSF in 400 μm-thick mPFC slices. In order to stimulate electrically the input fibers of pyramidal cells, the stimulation electrode (0.3-0.5 MΩ) was inserted into layers II/III of the prelimbic cortex. The recording electrode (2-2.5 MΩ) was placed in the vicinity of dendrites and cell bodies of pyramidal neurons in layer V (Huang et al., 2004).
(§3) Before LTP induction, basal synaptic transmission was recorded in each slice and the relationship between stimulus intensity and fEPSP slope was measured. Basal fEPSPs were evoked at 0.05 Hz for at least 10 min. The supramaximal slope was determined by gradually increasing the stimulation intensity until a population spike in the fEPSP became first visible. The stimulation intensity was adjusted to elicit a basal fEPSP with a slope of approximately 50% of the supramaximal value.
(§4) LTP was induced by application of five trains of theta-burst stimulation (TBS) with an inter-theta-train interval of 20 s (Brennaman et al., 2011). Each train consisted of 8 bursts delivered at 5 Hz. Each burst consisted of four pulses delivered at 100 Hz. Duration of pulses was 0.2 ms. For calculation of the LTP level, the mean fEPSP slope was measured between 50-60 min after TBS delivery, and it was then normalized to mean baseline fEPSP slope during 0-10 min before TBS. Stimulus artifacts in representative fEPSP examples in figures were blanked to facilitate the perception of fEPSPs recorded in the mPFC. Recording and analysis of LTP in St8Sia4^−/− mice was performed in a blind manner.
The enzyme endosialidase NF (endoNF) (Stummeyer et al., 2005) and the short form of polysialic acid composed of 10 or twelve sialic acid residues (DP10 and DP12) were purified as described previously (Keys et al., 2014). Sialic acid (N-acetylneuraminic acid, DP1) and the pentamer of sialic acid sodium salt (DP5) were obtained from EY Laboratories (San Mateo, Calif., USA). DMB-labelled DP2 and DP12, and non-labelled avDP10-9OAc were synthesized in the laboratory of Rita Gerardy-Schahn (see sections Synthesis of DMB-DP2 and DMB-DP12 and Synthesis of avDP10-9OAc, respectively). […]

[2] = tested on: mPFC slices from St8sia4−/− mice; assay: TBS-induced LTP in mPFC slices from ST8SIA4-deficient mice and wild-type littermates; type: cell-based, mouse; settings: Ro 25-6981 0.3 μM, DP12 1 μg/ml, sarcosine 0.75 mM
Description: as §1, §2, §3, §4

[3] = tested on: C57BL/6J mice with intra-mPFC endoNF injection; assay: Novel object recognition test before and after intra-mPFC endoNF injection; type: in vivo, mouse
Description: Guide cannulas were fabricated using stainless steel tubing with outer/inner diameter Ø 0.711/0.483 mm (Science Products, Germany). Dummy cannulas were made from entomological pins, size 2, Ø 0.41 mm (FST, Germany). Chronic implantation of cannulas into the mPFC in mice was performed as described previously for intrahippocampal injections (Kochlamazashvili et al., 2012; Senkov et al., 2015; Senkov et al., 2006).
Acute injection of endoNF in vivo was done under a short isoflurane anesthesia. For intra-mPFC injection, we used a digitally controlled infusion system (UltraMicroPump, UMP3, and Micro4 Controller, WPI, USA) fed with a 10 μl-Hamilton syringe and NanoFil 135 μm (35 GA) beveled needle. The thin (135 μm) part of the needle went into the mouse brain during injection, whereas its thick part (430 μm) fit perfectly in the guide cannula (inside 483 μm). Injections were performed as follows: 1) a mouse was anesthetized with 1-3% isoflurane as during implantation; 2) it was put into the stereotaxic frame; 3) the dummy cannula was gently removed from the left guide cannula; 4) a NanoFil injecting needle was carefully placed inside of the guide cannula and advanced further down until reaching the marker (made with a permanent pen at the needle shank (430 μm) to visualize the point when the needle should reach the surface of the brain coming out of the guide cannula (equal to the length of guide cannula); 5) once the marker was reached, a slow (10 μm increment) step dial was used to deepen the needle into the brain; 6) endoNF (2 μg/μl) or vehicle was injected with the following settings: 250 nl per site as deep as 1.5 and 2.25 mm from the brain surface (total injection volume per hemisphere 500 nl, injection rate of 3 nl/s); 7) after injection was complete (˜5 min), the needle was left in the injection site for another 5 min and then gently removed; 8) the dummy cannula was then put back to its place; 9) the same procedure was performed for the right hemisphere. The whole injection process took approximately 20-25 min under isoflurane anesthesia, and the mice recovered rather quickly, starting to move in approximately 2-3 min after being returned to their home cages. Complete recovery of a mouse after such short anesthesia usually occurs within 3-5 min. After injection, mice were returned to their animal facility. Behavior experiments started on the day after injection at approximately the same time, so that we could perform cognitive tests 24 hours after injection.
A white open field arena (50×50×30 cm) was used in the novel object recognition task. All behavior was video recorded and analyzed automatically by software (ANY-maze, version 4.99, Stoelting Co., Wood Dale, Ill.). […]

[4] = tested on: NMDAR-EPSCs (GluN1/GluN2B receptors); assay: Evoked NMDAR-EPSCs, whole-cell patch-clamp of layer V pyramidal neurons in sham- or endoNF-treated mPFC slices; type: cell-based, mouse; settings: 0.1 μM, in the presence of 5-HT4 antagonist RS 39604 (10 μM)
Source text: Each mouse was quickly sacrificed by cervical dislocation. After decapitation, the brain was rapidly removed from the skull and placed in ice-cold artificial cerebrospinal fluid (aCSF) equilibrated with 95% O2/5% CO2, which was composed of the following (in mM): 250 sucrose, 24 NaHCO3, 25 glucose, 2.5 KCl, 1.25 NaH2PO4, 2 CaCl2, and 1.5 MgCl2 (osmolarity 345-350 mOsm/kg, pH 7.4). Using a VT1200S vibratome (Leica, Nussloch, Germany), coronal slices containing the prelimbic and infralimbic cortices (1.9-1.3 mm anterior to bregma) were cut 350 μm or 400 μm thick, for patch clamp and extracellular recordings, respectively, in the same sucrose-containing aCSF. Then, the slices were transferred to a slice holding chamber filled with recording aCSF (osmolarity 300-305 mOsm/kg, pH 7.4) that contained 120 mM NaCl instead of sucrose (Eckhardt et al., 2000) and was continuously gassed with 95% O2/5% CO2.
as §1
For whole-cell patch-clamp recordings, layer V pyramidal neurons were visualized using a SliceScope Pro 6000 equipped with a 40× water-immersion objective and infrared differential interference contrast microscopy (Scientifica, Uckfield, UK). Pyramidal cells were identified by their triangular soma and long apical dendrites, and synaptically evoked excitatory postsynaptic currents (EPSCs) were recorded using patch pipettes (3-5 MQ) fabricated using borosilicate glass capillaries (wall thickness 0.315, length 100, outer diameter 1.5 mm, Hilgenberg) and a DMZ-Zeitz puller (Zeitz Instruments GmbH, Martinsried, Germany). The intracellular pipette solution contained the following (in mM): 140.7 Cs-methane-sulfonate, 5 NaCl, 1 MgCl2, 0.2 EGTA, 10 HEPES, 3 ATP-Mg, 0.3 Na-GTP, and 3.1 QX-314 (osmolarity 295 mOsm/kg, adjusted to pH 7.2 with CsOH). EPSCs were evoked by electrical pulses (0.2 ms) at 0.033 Hz via a glass pipette placed in layer II/III of the mPFC (identically to fEPSPs). Mixed EPSCs showing a fast AMPAR-mediated component and a slow NMDAR-mediated component were recorded at a −60 mV holding potential in whole-cell voltage-clamp mode in normal aCSF. The stimulation intensity was adjusted to evoke mixed EPSCs with amplitudes of approximately 300 pA. The slow NMDAR-mediated component of EPSCs was pharmacologically isolated at −60 mV in modified aCSF containing low Mg^2+ (0.1 mM) and high Ca^2+ (3.2 mM, for adjustment of divalent cation concentrations), the selective antagonist of α-amino-3-hydroxy-5-methyl-4-isoxazolepropionic acid (AMPA)/kainate receptors NBQX (10 μM), and the selective antagonist of γ-aminobutyric acid (GABA)B receptors CGP-55845 (2 μM) (Chen et al., 2003). The washout of Mg^2+ required at least 25 min. Recordings at a holding potential near the resting membrane potential allowed us to obtain stable NMDAR-EPSC recordings from pyramidal cells lasting for 1-1.5 hours. Series resistance (Rs, range 10-25 MΩ) was compensated (20-30%) and monitored continuously. Neurons in which Rs changed by more than 20% throughout the experiment were not included in the analysis. In voltage-clamp mode, membrane potential was not corrected for liquid junction potential. […]

SMILES | LTP level 50-60 min after TBS [1] | LTP magnitude ([2]; St8sia4+/+ mice) | LTP level 50-60 min after TBS ([2]; St8sia4−/− mice) | novel object recognition after intra-mPFC endoNF injection ([3]; 30 min before encoding, sarcosine 600 mg/kg i.p. (d2), DP12 (d5) and DP1 (d6) 1 mg/kg intranasally) | novel object recognition before endoNF injection ([3]; d-1, 600 mg/kg i.p. 30 min before the encoding phase) | inhibition of NMDAR-EPSC amplitude ([4]; endoNF-treated slices) | inhibition of NMDAR-EPSC amplitude ([4]; sham-treated slices)
O=C(N[C@@H](c1ccccc1)[C@@H]1CCCCN1)c1cccc(C(F)(F)F)c1Cl [SSR 504734, 2-chloro-N—[(S)-phenyl[(2S)-piperidin-2-yl]methyl]-3-trifluoromethyl benzamide] | rescued LTP |  |  |  |  |  | 
CNCC(=O)O [sarcosine, N-methylglycine] | fully restored to sham levels | no effect | full restoration of LTP levels | fully alleviated | normal object recognition |  | 
[H]/N=C(/NCCCCC)N/N=C/c1c[nH]c2ccc(OC)cc12 [tegaserod, tegaserod maleate] |  |  |  |  |  | ~30% | ~50%
